Data as given in PubChem BioAssay AID2060625 (Molecular Pharmacology Branch, DTP, NCI, 2025).
pIC50: −log10 of the molar value.

Tested on: 186277-243-T-J2-PDC spheroids with HUVEC/MSC, viability
Experiment: Anticancer human tumor 186277-243-T-J2-PDC patient-derived colon adenocarcinoma cell line growth inhibition [CLK]
Conditions: for pIC50: curve of first compound; for viability, T/C: stronger effect = lower value
Summary of the method: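 Multi-cell-type spheroids combined patient-derived tumor cells with HUVEC endothelial cells and human mesenchymal stem cells. Paired agents were dosed in half-log steps down from about clinical Cmax, or from 10 microM where Cmax was unknown.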

[1] = second compound 0.0316 µM, first compound 0.0316 µM
[2] = second compound 0.0316 µM, first compound 0.1 µM
[3] = second compound 0.1 µM, first compound 0.0316 µM
[4] = second compound 0.1 µM, first compound 0.1 µM
[5] = second compound 0.316 µM, first compound 0.0316 µM
[6] = second compound 0.316 µM, first compound 0.1 µM
[7] = second compound 1 µM, first compound 0.0316 µM
[8] = second compound 1 µM, first compound 0.1 µM
[9] = second compound 3.16 µM, first compound 0.0316 µM
[10] = second compound 3.16 µM, first compound 0.1 µM
[11] = second compound 10 µM, first compound 0.0316 µM
[12] = second compound 10 µM, first compound 0.1 µM
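Further: compound exposure lasted seven days before readout.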
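Wherever viability, T/C is given: 100% = DMSO vehicle control wells.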

SMILES: Cn1ncnc1[C@H]1c2n[nH]c(=O)c3cc(F)cc(c23)N[C@@H]1c1ccc(F)cc1 + CNC(=O)c1ccc(Nc2nc(OC3CCCC3)c3c(-c4ccc5nc(C)oc5c4)c[nH]c3n2)c(OC)c1
- pIC50 (second compound 0.0316 µM): < 7.00
- pIC50 (second compound 0.1 µM): < 7.00
- pIC50 (second compound 0.316 µM): > 9.50
- pIC50 (second compound 1 µM): > 9.50
- pIC50 (second compound 3.16 µM): > 9.50
- pIC50 (second compound 10 µM): > 9.50
- viability, T/C (second compound 0.0316 µM, first compound 0.000316 µM): 94.7%
- viability, T/C (second compound 0.0316 µM, first compound 0.001 µM): 103%
- viability, T/C (second compound 0.0316 µM, first compound 0.00316 µM): 107%
- viability, T/C (second compound 0.0316 µM, first compound 0.01 µM): 105%
- viability, T/C [1]: 107%
- viability, T/C [2]: 113%
- viability, T/C (second compound 0.1 µM, first compound 0.000316 µM): 63.8%
- viability, T/C (second compound 0.1 µM, first compound 0.001 µM): 61.7%
- viability, T/C (second compound 0.1 µM, first compound 0.00316 µM): 66.6%
- viability, T/C (second compound 0.1 µM, first compound 0.01 µM): 62.3%
- viability, T/C [3]: 69.9%
- viability, T/C [4]: 68.5%
- viability, T/C (second compound 0.316 µM, first compound 0.000316 µM): 36.9%
- viability, T/C (second compound 0.316 µM, first compound 0.001 µM): 42.5%
- viability, T/C (second compound 0.316 µM, first compound 0.00316 µM): 46.3%
- viability, T/C (second compound 0.316 µM, first compound 0.01 µM): 46.2%
- viability, T/C [5]: 49.4%
- viability, T/C [6]: 48.6%
- viability, T/C (second compound 1 µM, first compound 0.000316 µM): 27%
- viability, T/C (second compound 1 µM, first compound 0.001 µM): 31.4%
- viability, T/C (second compound 1 µM, first compound 0.00316 µM): 31.4%
- viability, T/C (second compound 1 µM, first compound 0.01 µM): 33.2%
- viability, T/C [7]: 40%
- viability, T/C [8]: 30.2%
- viability, T/C (second compound 3.16 µM, first compound 0.000316 µM): 27.1%
- viability, T/C (second compound 3.16 µM, first compound 0.001 µM): 27.8%
- viability, T/C (second compound 3.16 µM, first compound 0.00316 µM): 31.1%
- viability, T/C (second compound 3.16 µM, first compound 0.01 µM): 30.9%
- viability, T/C [9]: 33%
- viability, T/C [10]: 30.7%
- viability, T/C (second compound 10 µM, first compound 0.000316 µM): 30.3%
- viability, T/C (second compound 10 µM, first compound 0.001 µM): 29.3%
- viability, T/C (second compound 10 µM, first compound 0.00316 µM): 31.9%
- viability, T/C (second compound 10 µM, first compound 0.01 µM): 30.9%
- viability, T/C [11]: 36.2%
- viability, T/C [12]: 32.3%

SMILES: Nc1ccn(C2OC(CO)C(O)C2(F)F)c(=O)n1 (centres undefined) + CN1CCN(c2cc(C(=O)Nc3cc4cc(-c5cnn(C)c5)ccc4cn3)ccn2)CC1
- pIC50 (second compound 0.0316 µM): > 7.50
- pIC50 (second compound 0.1 µM): > 7.50
- pIC50 (second compound 0.316 µM): > 7.50
- pIC50 (second compound 1 µM): > 7.50
- pIC50 (second compound 3.16 µM): > 7.50
- pIC50 (second compound 10 µM): > 7.50
- viability, T/C [1]: 14%
- viability, T/C [2]: 14.4%
- viability, T/C (second compound 0.0316 µM, first compound 0.316 µM): 13.2%
- viability, T/C (second compound 0.0316 µM, first compound 1 µM): 15.4%
- viability, T/C (second compound 0.0316 µM, first compound 3.16 µM): 15.7%
- viability, T/C (second compound 0.0316 µM, first compound 10 µM): 15%
- viability, T/C [3]: 14.1%
- viability, T/C [4]: 15.4%
- viability, T/C (second compound 0.1 µM, first compound 0.316 µM): 13.7%
- viability, T/C (second compound 0.1 µM, first compound 1 µM): 15.4%
- viability, T/C (second compound 0.1 µM, first compound 3.16 µM): 13.6%
- viability, T/C (second compound 0.1 µM, first compound 10 µM): 13.5%
- viability, T/C [5]: 14.8%
- viability, T/C [6]: 12.4%
- viability, T/C (second compound 0.316 µM, first compound 0.316 µM): 13.9%
- viability, T/C (second compound 0.316 µM, first compound 1 µM): 12%
- viability, T/C (second compound 0.316 µM, first compound 3.16 µM): 8.4%
- viability, T/C (second compound 0.316 µM, first compound 10 µM): 7.19%
- viability, T/C [7]: 1.75%
- viability, T/C [8]: 1.77%
- viability, T/C (second compound 1 µM, first compound 0.316 µM): 1.48%
- viability, T/C (second compound 1 µM, first compound 1 µM): 0.16%
- viability, T/C (second compound 1 µM, first compound 3.16 µM): 0.64%
- viability, T/C (second compound 1 µM, first compound 10 µM): 0.64%
- viability, T/C [9]: 1.77%
- viability, T/C [10]: 1.46%
- viability, T/C (second compound 3.16 µM, first compound 0.316 µM): 0.93%
- viability, T/C (second compound 3.16 µM, first compound 1 µM): 4.16%
- viability, T/C (second compound 3.16 µM, first compound 3.16 µM): 2.01%
- viability, T/C (second compound 3.16 µM, first compound 10 µM): 0.57%
- viability, T/C [11]: 0.82%
- viability, T/C [12]: 0.83%
- viability, T/C (second compound 10 µM, first compound 0.316 µM): 0.9%
- viability, T/C (second compound 10 µM, first compound 1 µM): 1.08%
- viability, T/C (second compound 10 µM, first compound 3.16 µM): 0.95%
- viability, T/C (second compound 10 µM, first compound 10 µM): 0.6%
